Target: T1, recombinant human GR (Homo sapiens, UniProt P04150)
T1 construct: purchased Panvera/Invitrogen P2812 (kit P2893)
T1 sequence (P04150 1-777): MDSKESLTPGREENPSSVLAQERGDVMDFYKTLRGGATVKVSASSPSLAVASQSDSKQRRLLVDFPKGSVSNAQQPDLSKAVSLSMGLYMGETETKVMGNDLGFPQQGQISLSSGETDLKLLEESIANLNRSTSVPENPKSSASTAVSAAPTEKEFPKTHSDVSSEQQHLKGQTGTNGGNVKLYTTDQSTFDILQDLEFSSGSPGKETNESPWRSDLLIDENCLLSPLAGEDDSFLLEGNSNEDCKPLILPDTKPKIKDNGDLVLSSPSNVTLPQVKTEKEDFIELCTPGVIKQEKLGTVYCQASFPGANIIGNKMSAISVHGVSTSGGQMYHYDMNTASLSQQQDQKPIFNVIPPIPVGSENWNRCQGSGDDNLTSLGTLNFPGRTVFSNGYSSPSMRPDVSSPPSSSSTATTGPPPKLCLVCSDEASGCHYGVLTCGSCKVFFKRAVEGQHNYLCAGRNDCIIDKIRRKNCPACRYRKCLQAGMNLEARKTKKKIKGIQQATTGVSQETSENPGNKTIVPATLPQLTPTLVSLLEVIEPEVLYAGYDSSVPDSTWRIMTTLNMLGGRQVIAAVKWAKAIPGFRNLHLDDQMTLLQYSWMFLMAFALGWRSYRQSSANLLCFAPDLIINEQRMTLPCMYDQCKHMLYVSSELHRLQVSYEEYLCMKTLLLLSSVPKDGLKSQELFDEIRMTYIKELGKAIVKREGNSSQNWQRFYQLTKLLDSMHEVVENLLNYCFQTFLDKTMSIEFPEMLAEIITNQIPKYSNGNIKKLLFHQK
Test: Human Glucocorticoid Receptor (GR) Assay (fluorescence polarization, Panvera/Invitrogen kit)
Format: binding
Details: fluorescence polarization; GS Red tracer; 2 hours at room temperature; 100% control 10 μM Dexamethasone; read-out: Inhibition of GR binding, IC50
Outline: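 Fluorescence polarization competition with recombinant GR and GS Red fluorescent ligand plus stabilizing peptide and DTT in potassium phosphate/sodium molybdate/EDTA buffer with DMSO. Incubated 2 hours at room temperature in the dark; 0% control DMSO, 100% control 10 μM dexamethasone.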

Compound	IC50 [nM]
C[C@]12Cc3cnn(-c4ccc(F)cc4)c3C=C1CC[C@H]1[C@@H]3CC[C@](OC(=O)C4CC4)(C(=O)SCF)[C@@]3(C)C[C@H](O)[C@@]12F [Example 196, (1R,3aS,3bS,10aS,10bR,11S,12aS)-1-{[(Fluoromethyl)sulfanyl]carbonyl}-10b-fluoro-7-(4-fluorophenyl)-11-hydroxy-10a,12a-dimethyl-1,2,3,3a,3b,4,5,7,10,10a,10b,11,12,12a-tetradecahydrocyclopenta[5,6]naphtho[1,2-f]indazol-1-yl cyclopropanecarboxylate]	14
COCC(=O)O[C@]1(C(=O)SCC#N)CC[C@H]2[C@@H]3CCC4=Cc5c(cnn5-c5ccc(F)cc5)C[C@]4(C)[C@@]3(F)[C@@H](O)C[C@@]21C [Example 197, (1R,3aS,3bS,10aS,10bR,11S,12aS)-1-{[(Cyanomethyl)sulfanyl]carbonyl}-10b-fluoro-7-(4-fluorophenyl)-11-hydroxy-10a,12a-dimethyl-1,2,3,3a,3b,4,5,7,10,10a,10b,11,12,12a-tetradecahydrocyclopenta[5,6]naphtho[1,2-f]indazol-1-yl methoxyacetate]	3.3
COCC(=O)O[C@]1(C(=O)SCF)CC[C@H]2[C@@H]3CCC4=Cc5c(cnn5-c5ccc(F)cc5)C[C@]4(C)[C@@]3(F)[C@@H](O)C[C@@]21C [Example 198, (1R,3aS,3bS,10aS,10bR,11S,12aS)-1-{[(Fluoromethyl)sulfanyl]carbonyl}-10b-fluoro-7-(4-fluorophenyl)-11-hydroxy-10a,12a-dimethyl-1,2,3,3a,3b,4,5,7,10,10a,10b,11,12,12a-tetradecahydrocyclopenta[5,6]naphtho[1,2-f]indazol-1-yl methoxyacetate]	2.6
CCC(=O)O[C@]1(C(=O)SCC#N)CC[C@H]2[C@@H]3CCC4=Cc5c(cnn5-c5ccc(F)cc5)C[C@]4(C)[C@@]3(F)[C@@H](O)C[C@@]21C [Example 199, (1R,3aS,3bS,10aS,10bR,11S,12aS)-1-{[(Cyanomethyl)sulfanyl]carbonyl}-10b-fluoro-7-(4-fluorophenyl)-11-hydroxy-10a,12a-dimethyl-1,2,3,3a,3b,4,5,7,10,10a,10b,11,12,12a-tetradecahydrocyclopenta[5,6]naphtho[1,2-f]indazol-1-yl propanoate]	4.6
CCC(=O)O[C@]1(C(=O)SCF)CC[C@H]2[C@@H]3CCC4=Cc5c(cnn5-c5ccc(F)cc5)C[C@]4(C)[C@@]3(F)[C@@H](O)C[C@@]21C [Example 200, (1R,3aS,3bS,10aS,10bR,11S,12aS)-1-{[(Fluoromethyl)sulfanyl]carbonyl}-10b-fluoro-7-(4-fluorophenyl)-11-hydroxy-10a,12a-dimethyl-1,2,3,3a,3b,4,5,7,10,10a,10b,11,12,12a-tetradecahydrocyclopenta[5,6]naphtho[1,2-f]indazol-1-yl propanoate]	14
C[C@]12Cc3cnn(-c4ccc(F)cc4)c3C=C1CC[C@H]1[C@@H]3CC[C@](OC(=O)c4cocn4)(C(=O)SCC#N)[C@@]3(C)C[C@H](O)[C@@]12F [Example 201, (1R,3aS,3bS,10aS,10bR,11S,12aS)-1-{[(Cyanomethyl)sulfanyl]-carbonyl}-10b-fluoro-7-(4-fluorophenyl)-11-hydroxy-10a,12a-dimethyl-1,2,3,3a,3b,4,5,7,10,10a,10b,11,12,12a-tetradecahydrocyclopenta[5,6]naphtho[1,2-f]indazol-1-yl 1,3-oxazole-4-carboxylate]	5.3
C[C@]12Cc3cnn(-c4ccc(F)cc4)c3C=C1CC[C@H]1[C@@H]3CC[C@](OC(=O)c4cocn4)(C(=O)SCF)[C@@]3(C)C[C@H](O)[C@@]12F [Example 202, (1R,3aS,3bS,10aS,10bR,11S,12aS)-1-{[(Fluoromethyl)sulfanyl]carbonyl}-10b-fluoro-7-(4-fluorophenyl)-11-hydroxy-10a,12a-dimethyl-1,2,3,3a,3b,4,5,7,10,10a,10b,11,12,12a-tetradecahydrocyclopenta[5,6]naphtho[1,2-f]indazol-1-yl 1,3-oxazole-4-carboxylate]	5.8
CCC(=O)O[C@]1(C(=O)SCC#N)CC[C@H]2[C@@H]3CCC4=Cc5c(cnn5-c5ccc(F)nc5)C[C@]4(C)[C@@]3(F)[C@@H](O)C[C@@]21C [Example 203, (1R,3aS,3bS,10aS,10bR,11S,12aS)-1-{[(Cyanomethyl)sulfanyl]carbonyl}-10b-fluoro-7-(6-fluoropyridin-3-yl)-11-hydroxy-10a,12a-dimethyl-1,2,3,3a,3b,4,5,7,10,10a,10b,11,12,12a-tetradecahydrocyclopenta[5,6]naphtho[1,2-f]indazol-1-yl propanoate]	2.3
CCC(=O)O[C@]1(C(=O)SCF)CC[C@H]2[C@@H]3CCC4=Cc5c(cnn5-c5ccc(F)nc5)C[C@]4(C)[C@@]3(F)[C@@H](O)C[C@@]21C [Example 204, (1R,3aS,3bS,10aS,10bR,11S,12aS)-1-{[(Fluoromethyl)sulfanyl]carbonyl}-10b-fluoro-7-(6-fluoropyridin-3-yl)-11-hydroxy-10a,12a-dimethyl-1,2,3,3a,3b,4,5,7,10,10a,10b,11,12,12a-tetradecahydrocyclopenta[5,6]naphtho[1,2-f]indazol-1-yl propanoate]	3.3
COCC(=O)O[C@]1(C(=O)SCC#N)CC[C@H]2[C@@H]3CCC4=Cc5c(cnn5-c5ccc(F)nc5)C[C@]4(C)[C@@]3(F)[C@@H](O)C[C@@]21C [Example 205, (1R,3aS,3bS,10aS,10bR,11S,12aS)-1-{[(Cyanomethyl)sulfanyl]carbonyl}-10b-fluoro-7-(6-fluoropyridin-3-yl)-11-hydroxy-10a,12a-dimethyl-1,2,3,3a,3b,4,5,7,10,10a,10b,11,12,12a-tetradecahydrocyclopenta[5,6]naphtho[1,2-f]indazol-1-yl methoxyacetate]	1.4
COCC(=O)O[C@]1(C(=O)SCF)CC[C@H]2[C@@H]3CCC4=Cc5c(cnn5-c5ccc(F)nc5)C[C@]4(C)[C@@]3(F)[C@@H](O)C[C@@]21C [Example 206, (1R,3aS,3bS,10aS,10bR,11S,12aS)-1-{[(Fluoromethyl)sulfanyl]carbonyl}-10b-fluoro-7-(6-fluoropyridin-3-yl)-11-hydroxyl-1,2,3,3a,3b,4,5,7,10,10a,10b,11,12,12a-tetradecahydrocyclopenta[5,6]naphtho[1,2-f]indazol-1-yl methoxyacetate]	2.5
C[C@]12Cc3cnn(-c4ccc(F)nc4)c3C=C1CC[C@H]1[C@@H]3CC[C@](OC(=O)C4CC4)(C(=O)SCC#N)[C@@]3(C)C[C@H](O)[C@@]12F [Example 207, (1R,3aS,3bS,10aS,10bR,11S,12aS)-1-{[(Cyanomethyl)sulfanyl]carbonyl}-10b-fluoro-7-(6-fluoropyridin-3-yl)-11-hydroxy-10a,12a-dimethyl-1,2,3,3a,3b,4,5,7,10,10a,10b,11,12,12a-tetradecahydrocyclopenta[5,6]naphtho[1,2-f]indazol-1-yl cyclopropanecarboxylate]	3.3
C[C@]12Cc3cnn(-c4ccc(F)nc4)c3C=C1CC[C@H]1[C@@H]3CC[C@](OC(=O)C4CC4)(C(=O)SCF)[C@@]3(C)C[C@H](O)[C@@]12F [Example 208, (1R,3aS,3bS,10aS,10bR,11S,12aS)-1-{[(Fluoromethyl)sulfanyl]carbonyl}-10b-fluoro-7-(6-fluoropyridin-3-yl)-11-hydroxy-10a,12a-dimethyl-1,2,3,3a,3b,4,5,7,10,10a,10b,11,12,12a-tetradecahydrocyclopenta[5,6]naphtho[1,2-f]indazol-1-yl cyclopropanecarboxylate]	3.4
C[C@]12Cc3cnn(-c4ccc(F)nc4)c3C=C1CC[C@H]1[C@@H]3CC[C@](OC(=O)c4cocn4)(C(=O)SCC#N)[C@@]3(C)C[C@H](O)[C@@]12F [Example 209, (1R,3aS,3bS,10aS,1.0bR,11S,12aS)-1-{[(Cyanomethyl)sulfanyl]carbonyl}-10b-fluoro-7-(6-fluoropyridin-3-yl)-11-hydroxy-10a,12a-dimethyl-1,2,3,3a,3b,4,5,7,10,10a,10b,11,12,12a-tetradecahydrocyclopenta[5,6]naphtho[1,2-f]indazol-1-yl 1,3-oxazole-4-carboxylate]	3.6
C[C@]12Cc3cnn(-c4ccc(F)nc4)c3C=C1CC[C@H]1[C@@H]3CC[C@](OC(=O)c4cocn4)(C(=O)SCF)[C@@]3(C)C[C@H](O)[C@@]12F [Example 210, (1R,3aS,3bS,10aS,10bR,11S,12aS)-1-{[(Fluoromethyl)sulfanyl]carbonyl}-10b-fluoro-7-(6-fluoropyridin-3-yl)-11-hydroxy-10a,12a-dimethyl-1,2,3,3a,3b,4,5,7,10,10a,10b,11,12,12a-tetradecahydrocyclopenta[5,6]naphtho[1,2-f]indazol-1-yl 1,3-oxazole-4-carboxylate]	2
